SMILES strings stand for the structures. Bounds are passed on as bounds.

The subject of assay [1] is T47D (PI3Kα-H1047R) cell line. The experiment in a line: HTRF phospho-AKT(S473) cell assay in T47D cells. It counts as cell-based, human. To be noted: Homo sapiens, 2 hours compound incubation. The essentials: (§1)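 T47D: RPMI + 10% FBS + 0.2 units/mL insulin, top 5 μM. SKBR3: McCoy's 5A + 10% FBS, top 10 μM, 70 ng/ml PDGF-BB last 15 min. Both: 12-pt 1:3, 2 h, 37° C, max 0.5% DMSO; HTRF pAKT(S473); IC50.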
In general terms: Time-resolved FRET reads energy transfer from a long-lived donor to a nearby acceptor.

Assay [2] concerns SKBR3 (PI3Kα-Wild Type) cell line. As to the kind of experiment: HTRF phospho-AKT(S473) cell assay in SKBR3 cells. It counts as cell-based, human. To be noted: Homo sapiens, SK-BR-3, 2 hours compound incubation, PDGF-BB stimulated. The gist of the method: as §1
The mark [3] stands for this setting: HTRF phospho-AKT(S473), T47D (PI3Kα-H1047R) cells.
Where [4] appears, read: HTRF phospho-AKT(S473), SKBR3 (PI3Kα-Wild Type) cells.
The mark [5] stands for this setting: T47D (PI3Kα-H1047R) cells, HTRF phospho-AKT(S473).
Where [6] appears, read: SKBR3 (PI3Kα-Wild Type) cells, HTRF phospho-AKT(S473).
[7] abbreviates: T47D (PI3Kα-H1047R) cell line, phospho-AKT(S473) HTRF.
[8] abbreviates: SKBR3 (PI3Kα-Wild Type) cell line, phospho-AKT(S473) HTRF.

A word on the IC50: it is the midpoint of a concentration-inhibition curve. On to `Cc1cc([C@@H](C)Nc2ccc(Cl)nc2C(=O)NS(C)(=O)=O)c2nc(N3C[C@@H]4[C@H](C3)[C@H]4c3n[nH]c(C)c3F)n(C)c(=O)c2c1` [Compound 594, 6-chloro-3-(((R)-1-(2-((1R,5S,6R)-6-(4-fluoro-5-methyl-1H-pyrazol-3-yl)-3-azabicyclo[3.1.0]hexan-3-yl)-3,6-dimethyl-4-oxo-3,4-dihydroquinazolin-8-yl)ethyl)amino)-N-(methylsulfonyl) picolinamide], for which the IC50 in assay [1] (setting [3]) is below 0.25 µM; in assay [2] (setting [4]) it was 1 to 5 µM.
For `COc1nc(C2CCN(c3nc4c([C@@H](C)Nc5ccc(Cl)nc5C(=O)NS(C)(=O)=O)cc(C)cc4c(=O)n3C)CC2)ncc1C` [Compound 562, (R)-6-chloro-3-((1-(2-(4-(4-methoxy-5-methylpyrimidin-2-yl)piperidin-1-yl)-3,6-dimethyl-4-oxo-3,4-dihydroquinazolin-8-yl)ethyl)amino)-N-(methylsulfonyl) picolinamide], in that order: 0.25 to 0.5 µM and at least 5 µM.
On to `Cc1cc([C@@H](C)Nc2ccc(Cl)nc2C(=O)NS(C)(=O)=O)c2nc(N3C[C@H]4CC(n5cc(C)cn5)C[C@@H]4C3)n(C)c(=O)c2c1` (single isomer, unassigned) [Compound 676, 6-chloro-3-(((R)-1-(3,6-dimethyl-2-((3aS*,6aS*)-5-(4-methyl-1H-pyrazol-1-yl)hexahydrocyclopenta [c]pyrrol-2(1H)-yl)-4-oxo-3,4-dihydroquinazolin-8-yl)ethyl)amino)-N-(methylsulfonyl) picolinamide], for which the IC50 in assay [1] (setting [3]) was 0.25 to 0.5 µM; in assay [2] (setting [4]), at least 5 µM.
For `Cc1cc([C@@H](C)Nc2ccc(Cl)nc2C(=O)NS(C)(=O)=O)c2nc(N3CCC[C@@H](Oc4cnc(C)cn4)C3)n(C)c(=O)c2c1` [Compound 376, 6-chloro-3-(((R)-1-(3,6-dimethyl-2-((R)-3-((5-methylpyrazin-2-yl)oxy)piperidin-1-yl)-4-oxo-3,4-dihydroquinazolin-8-yl)ethyl)amino)-N-(methylsulfonyl) picolinamide], the IC50 in assay [1] (setting [5]) was 0.25 to 0.5 µM; in assay [2] (setting [6]), at least 5 µM.
Consider `Cc1cc([C@@H](C)Nc2ccc(Cl)nc2C(=O)NS(C)(=O)=O)c2nc(C#Cc3cnn(C)c3)n(C)c(=O)c2c1` [Compound 845, (R)-6-chloro-3-((1-(3,6-dimethyl-2-((1-methyl-1H-pyrazol-4-yl)ethynyl)-4-oxo-3,4-dihydroquinazolin-8-yl)ethyl)amino)-N-(methylsulfonyl) picolinamide], for which the IC50 in assay [1] (setting [7]) was 0.5 to 1 µM; in assay [2] (setting [8]) it was at least 5 µM.
On to `Cc1cc([C@@H](C)Nc2ccc(Cl)nc2C(=O)NS(=O)(=O)[C@H]2C[C@@H](O)C2)c2nc(N3Cc4ccc(F)cc4C3)n(C)c(=O)c2c1` (relative stereo) [Compound 337, 6-chloro-3-(((R)-1-(2-(5-fluoroisoindolin-2-yl)-3,6-dimethyl-4-oxo-3,4-dihydroquinazolin-8-yl)ethyl)amino)-N-(((1S*,3S*)-3-hydroxycyclobutyl)sulfonyl)picolinamide], for which the figures for the IC50 in assay [1] (setting [5]) and in assay [2] (setting [6]) were below 0.25 µM and 1 to 5 µM, respectively.
Consider `Cc1cc([C@@H](C)Nc2ccc(Cl)nc2C(=O)NS(C)(=O)=O)c2nc(N3CCn4ncc(F)c4C3)n(C)c(=O)c2c1` [Compound 711, (R)-6-chloro-3-((1-(2-(3-fluoro-6,7-dihydropyrazolo[1,5-a]pyrazin-5(4H)-yl)-3,6-dimethyl-4-oxo-3,4-dihydroquinazolin-8-yl)ethyl)amino)-N-(methylsulfonyl) picolinamide], for which the concentration for half-maximal inhibition (IC50) in assay [1] (setting [3]) was 0.25 to 0.5 µM; in assay [2] (setting [4]) it was 1 to 5 µM.
For `Cc1cc([C@@H](C)Nc2ccc(Cl)nc2C(=O)NS(C)(=O)=O)c2nc(N3CCN(c4cncc(C)n4)CC3)n(C)c(=O)c2c1` [Compound 529, (R)-6-chloro-3-((1-(3,6-dimethyl-2-(4-(6-methylpyrazin-2-yl)piperazin-1-yl)-4-oxo-3,4-dihydroquinazolin-8-yl)ethyl)amino)-N-(methylsulfonyl) picolinamide], in that order: below 0.25 µM and 1 to 5 µM.
Turning to `Cc1cc([C@@H](C)Nc2ccc(Cl)nc2C(=O)NS(C)(=O)=O)c2nc(N3CCN(c4cnc(C)cn4)CC3)n(C)c(=O)c2c1` [Compound 369, (R)-6-chloro-3-((1-(3,6-dimethyl-2-(4-(5-methylpyrazin-2-yl)piperazin-1-yl)-4-oxo-3,4-dihydroquinazolin-8-yl)ethyl)amino)-N-(methylsulfonyl) picolinamide], the IC50 is below 0.25 µM in assay [1] (setting [5]) and 1 to 5 µM in assay [2] (setting [6]).
For `Cc1cc([C@@H](C)Nc2ccc(Cl)nc2C(=O)NS(C)(=O)=O)c2nc(N3CC[C@@H](Oc4ccnn4C)C3)n(C)c(=O)c2c1` [Compound 352, 6-chloro-3-(((R)-1-(3,6-dimethyl-2-((R)-3-((1-methyl-1H-pyrazol-5-yl)oxy)pyrrolidin-1-yl)-4-oxo-3,4-dihydroquinazolin-8-yl)ethyl)amino)-N-(methylsulfonyl) picolinamide], in that order: below 0.25 µM and 1 to 5 µM.
Take `Cc1cc([C@@H](C)Nc2ccc(Cl)nc2C(=O)NS(C)(=O)=O)c2nc(-c3ccc(-c4nc(C)no4)nc3)n(C)c(=O)c2c1` [Compound 843, (R)-6-chloro-3-((1-(3,6-dimethyl-2-(6-(3-methyl-1,2,4-oxadiazol-5-yl)pyridin-3-yl)-4-oxo-3,4-dihydroquinazolin-8-yl)ethyl)amino)-N-(methylsulfonyl) picolinamide]: the IC50 is 0.25 to 0.5 µM in assay [1] (setting [7]) and 1 to 5 µM in assay [2] (setting [8]).
As for `Cc1cc([C@@H](C)Nc2ccc(Cl)nc2C(=O)NS(C)(=O)=O)c2nc(N3C[C@@H]4[C@H](C3)[C@H]4c3ccc(N(C)C)nc3)n(C)c(=O)c2c1` [Compound 393, 6-chloro-3-(((R)-1-(2-((1R,5S,6S)-6-(6-(dimethylamino)pyridin-3-yl)-3-azabicyclo[3.1.0]hexan-3-yl)-3,6-dimethyl-4-oxo-3,4-dihydroquinazolin-8-yl)ethyl)amino)-N-(methylsulfonyl) picolinamide], the results for the 50% inhibitory concentration (IC50) in assay [1] (setting [5]) and in assay [2] (setting [6]) were 0.25 to 0.5 µM and at least 5 µM, respectively.
As to `Cc1cc([C@@H](C)Nc2ccc(Cl)nc2C(=O)NS(C)(=O)=O)c2nc(-c3cc(F)c4nn(C)cc4c3)n(C)c(=O)c2c1` [Compound 788, (R)-6-chloro-3-((1-(2-(7-fluoro-2-methyl-2H-indazol-5-yl)-3,6-dimethyl-4-oxo-3,4-dihydroquinazolin-8-yl)ethyl)amino)-N-(methylsulfonyl) picolinamide], the results for the concentration for half-maximal inhibition (IC50) in assay [1] (setting [3]) and in assay [2] (setting [4]) were below 0.25 µM and 1 to 5 µM, respectively.
On the same counts, the results for `Cc1cc([C@@H](C)Nc2ccc(Cl)nc2C(=O)NS(C)(=O)=O)c2nc(N3Cc4cccc(-c5cncn5C)c4C3)n(C)c(=O)c2c1` [Compound 674, (R)-6-chloro-3-((1-(3,6-dimethyl-2-(4-(1-methyl-1H-imidazol-5-yl)isoindolin-2-yl)-4-oxo-3,4-dihydroquinazolin-8-yl)ethyl)amino)-N-(methylsulfonyl) picolinamide] are 0.25 to 0.5 µM and at least 5 µM.
`Cc1cc([C@@H](C)Nc2ccc(Cl)nc2C(=O)NS(C)(=O)=O)c2nc(N3CCC(n4ncc5ccncc54)CC3)n(C)c(=O)c2c1` [Compound 258]: the results for the half-inhibitory concentration (IC50) in assay [1] (setting [5]) and in assay [2] (setting [6]) were below 0.25 µM and 1 to 5 µM, respectively.
For `Cc1cc([C@@H](C)Nc2ccc(Cl)nc2C(=O)NS(C)(=O)=O)c2nc(N3CC[C@H](Oc4cnc(C)cn4)C3)n(C)c(=O)c2c1` [Compound 631, 6-chloro-3-(((R)-1-(3,6-dimethyl-2-((S)-3-((5-methylpyrazin-2-yl)oxy)pyrrolidin-1-yl)-4-oxo-3,4-dihydroquinazolin-8-yl)ethyl)amino)-N-(methylsulfonyl) picolinamide], the figures for the IC50 in assay [1] (setting [3]) and in assay [2] (setting [4]) were below 0.25 µM and 1 to 5 µM, respectively.
As to `Cc1cc([C@@H](C)Nc2ccc(Cl)nc2C(=O)NS(C)(=O)=O)c2nc(N3CCC(c4ncc(C(F)F)cn4)CC3)n(C)c(=O)c2c1` [Compound 504, (R)-6-chloro-3-((1-(2-(4-(5-(difluoromethyl)pyrimidin-2-yl)piperidin-1-yl)-3,6-dimethyl-4-oxo-3,4-dihydroquinazolin-8-yl)ethyl)amino)-N-(methylsulfonyl) picolinamide], the half-inhibitory concentration (IC50) in assay [1] (setting [3]) is below 0.25 µM; in assay [2] (setting [4]), 1 to 5 µM.
`Cc1cc([C@@H](C)Nc2ccc(Cl)nc2C(=O)NS(C)(=O)=O)c2nc(N3Cc4cc(F)cnc4C3)n(C)c(=O)c2c1` [Compound 225, (R)-6-chloro-3-((1-(2-(3-fluoro-5,7-dihydro-6H-pyrrolo[3,4-b]pyridin-6-yl)-3,6-dimethyl-4-oxo-3,4-dihydroquinazolin-8-yl)ethyl)amino)-N-(methylsulfonyl) picolinamide]: the 50% inhibitory concentration (IC50) is below 0.25 µM in assay [1] (setting [5]) and 1 to 5 µM in assay [2] (setting [6]).
Take `Cc1cc([C@@H](C)Nc2ccc(Cl)nc2C(=O)NS(C)(=O)=O)c2nc(N3CCC(n4ccccc4=O)CC3)n(C)c(=O)c2c1` [Compound 677, (R)-6-chloro-3-((1-(3,6-dimethyl-4-oxo-2-(4-(2-oxopyridin-1(2H)-yl)piperidin-1-yl)-3,4-dihydroquinazolin-8-yl)ethyl)amino)-N-(methylsulfonyl) picolinamide]: the IC50 in assay [1] (setting [3]) was 0.25 to 0.5 µM; in assay [2] (setting [4]), at least 5 µM.

These data come from US12281122B1, “PI3K inhibitors” (Cogent Biosciences, Inc., priority 2023, dated 2025).
